{
  "source": "patent US10564084B2",
  "about": "“Rapid characterization of the solubility of amphiphiles” (The Trustees of Princeton University, priority 2013, dated 2020)",
  "origin": "cited, not measured here",
  "conditions": "in water; used to rescale the concentration c",
  "data": [
    {"smiles": "CCCCCCCCCCCCCCCC[N+](C)(C)C.[Cl-]", "note": "[C16TAC, hexadecyl trimethylammonium chloride]", "values": [
      {"measurement": "critical micellar concentration cmc", "value": 1.6, "unit": "mM"}
    ]}
  ]
}
